Consider one compound from paper PMC5489047, “Molecular glues for manipulating enzymes: trypsin inhibition by benzamidine-conjugated molecular glues” (Chemical Science, 2015).

Test [1] addresses T1, trypsin (Sus scrofa, UniProt P00761).
T1 construct: purchased Wako; host or cells: porcine pancreas (natural source)
Kind of test: Circular dichroism (CD) spectral titration of trypsin, Hill equation fit. The format is binding. The following applies: trypsin 5 μM, CD at 237 nm, 25 °C, Tris–HCl buffer (50 mM Tris–HCl, 10 mM CaCl2, pH 8.0), read-out: association constant (K assoc) with trypsin (converted). From the text:
We first investigated the effect of conjugation of molecular glues to BA on the binding affinity for trypsin. Trypsin is known to alter its conformation upon interaction with metal ions,[24] polymers[25] and proteins,[26] resulting in circular dichroism (CD) spectral changes. Upon mixing with Glue10–BA, trypsin also changed its CD spectrum. […] According to the reported method,[27],[28] we estimated the association constant (K assoc) of Glue10–BA with trypsin to be 5.5 × 10^5 M^–1 by fitting the fractions of bound trypsin (Fig. 3, red) to the Hill equation.[27],[28] […]
Fig. 3 Circular dichroism (CD) spectral titration profiles of trypsin (5 μM) at 237 nm with molecular glues Glue29–BA (brown; 0–2.5 μM), Glue10–BA (red; 0–7 μM), Glue10–Ph (green; 0–12 μM) and ^mGlue27–BA (purple; 0–50 μM), together with reference TEG–BA (blue; 0–200 μM), at 25 °C in Tris–HCl buffer (50 mM Tris–HCl, 10 mM CaCl2, pH 8.0). The fractions of bound trypsin were calculated from (I – I 0)/(I sat – I 0), where I 0, I and I sat represent the CD intensities before titration, observed with titrants and at the saturation point, respectively. […]
The association constants (K assoc) were calculated based on the Hill equation by plotting the fractions of bound trypsin versus the concentrations of a titrant. […]

The target in test [2] is T1, trypsin. Kind of test: Trypsin activity assay (TAME hydrolysis, absorption at 247 nm). The format is biochemical. The following applies: trypsin 20 nM, TAME 1 mM. The source says:
Trypsin hydrolyses peptide linkages at the carboxyl side of lysine and arginine residues.[29] As already described in Fig. 2a, this protease activity is inhibited by BA.[10] Considering the exceptionally high affinity of Glue29–BA for trypsin, we expected that this BA-appended molecular glue might be the best inhibitor among those listed in Fig. 1. However, as observed by dynamic light scattering (DLS; Fig. S12 ^†), trypsin/Glue29–BA, in contrast with other complexes such as trypsin/Glue10–BA and trypsin/Glue10–Ph, tends to form large aggregates (>200 nm), most likely due to the formation of physical crosslinks between its excessively long glue moiety and trypsin. […] We presume that the poor conformational flexibility of the in-chain Gu^+ units in the glue moiety hinders the ability of the conjugated BA terminus to properly block the substrate-binding site of trypsin. […]
To a Tris–HCl buffer (50 mM Tris–HCl, 10 mM CaCl2, pH 8.0) solution of trypsin (20 nM) was added a Tris–HCl buffer solution of TEG–BA, and the mixture was incubated at 25 °C for 1 min. […] The trypsin activity was determined using pseudo-first order reaction kinetics and normalized to that of untreated trypsin. The trypsin activities in the presence of Gluen–BA, ^mGluen–BA and Gluen–Ph were likewise evaluated.

T1 sequence (P00761 9-231): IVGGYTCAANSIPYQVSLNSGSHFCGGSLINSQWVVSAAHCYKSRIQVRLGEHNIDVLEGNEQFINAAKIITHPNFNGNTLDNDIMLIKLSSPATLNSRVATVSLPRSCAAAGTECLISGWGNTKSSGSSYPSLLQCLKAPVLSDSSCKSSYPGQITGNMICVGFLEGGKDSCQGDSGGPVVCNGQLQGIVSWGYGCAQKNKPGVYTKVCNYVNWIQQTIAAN

On to `[N-]=[N+]=NCCOCCOCCOCCNC(=O)CCCC(=O)Nc1ccc(C(=N)N)cc1` [TEG–BA], for which, at trypsin [1], the Kd was 62.5 µM. The “inhibition of TAME hydrolysis by trypsin at 10 μM” value against trypsin [2] (10 μM compound) is recorded as “did not exhibit detectable inhibition”. Moreover, the IC50 on trypsin [2] (25 °C, Tris–HCl buffer pH 8.0, read-out: half-maximal inhibitory concentration (IC50)) came to 79 µM.
